From patent US11185100B2 (priority 2014, dated 2021)
Where two headings read alike, the source gives them in different places.

Biological target: T1R1/T1R3 receptor (Felis catus, UniProt E3UMS2)
Assay: Activation of T1R1/T1R3 receptor by transmembrane compounds alone or with alanine, IMP, GMP, phenylalanine; HEK293 cells, calcium fluorescence (Example 5)
Assay type: cell-based, cat
Conditions: for Max resp % of IMP +Alanine (20 mM): relative to IMP; for Thres +Alanine (20 mM) / Thres +IMP (0.2 mM): threshold concentration; for Max resp % of Ala +IMP (0.2 mM): relative to Ala; for Activity: Table 18, all transmembrane compounds tested, active / N/A (not active)
Text: Methods: HEK293 cells that stably express T1R3 and inducibly express T1R1 were exposed to transmembrane compounds alone or in combination with one or more amino acids and/or one or more nucleotides to activate the umami receptor. Activation of the T1R1/T1R3 receptor was detected by a change in intracellular calcium levels using a calcium sensitive fluorescent dye. Cells that express T1R3 but not T1R1 were used as a control. A FLIPR® Tetra or a FlexStation® 3 was used for data capture.
In each experiment, serial dilutions of up to 10 mM of the transmembrane compound were added to the T1R1/T1R3-expressing cells.

| SMILES | +Alanine (20 mM) Max resp % of IMP (+Alanine (20 mM)) | +Alanine (20 mM) Max resp ΔF/F (+Alanine (20 mM)) | +Alanine (20 mM) Thres (+Alanine (20 mM)) [mM] | Max resp % of IMP +Alanine (20 mM) (+Alanine (20 mM)) [%] | Thres +Alanine (20 mM) (+Alanine (20 mM)) [mM] | +IMP (0.2 mM) Max resp % of Ala | Max resp ΔF/F +IMP (0.2 mM) | Max resp % of Ala +IMP (0.2 mM) [%] | Thres +IMP (0.2 mM) [mM] | Activity | EC50 (compound alone in buffer, read-out: EC50 +buffer (alone)) [µM] | EC50 (read-out: +Alanine (20 mM) + IMP (0.2 mM) EC50, +Alanine (20 mM) + IMP (0.2 mM)) [µM] | EC50 (read-out: EC50 +Alanine (20 mM) + IMP (0.2 mM), +Alanine (20 mM) + IMP (0.2 mM)) [µM] | EC50 (read-out: EC50 +Alanine (20 mM), +Alanine (20 mM)) [µM] |
| --- | --- | --- | --- | --- | --- | --- | --- | --- | --- | --- | --- | --- | --- | --- |
| O=C(Nc1ccccc1Br)N[C@@H]1c2ccccc2C[C@@H]1O (stereo in doubt) [1-(2-bromophenyl)-3-((1R,2S)-2-hydroxy-2,3-dihydro-1H-inden-1-yl)urea] | 33.0 % of IMP | 0.3 ΔF/F | 3 | 33.0 | 3 | 44.9 % of Ala | 0.378 ΔF/F | 44.9 | 3 | active | – | – | – | – |
| O=C(CN1C(=O)C(=O)N(Cc2ccccc2)C1=O)c1ccccc1 [1-benzyl-3-(2-oxo-2-phenylethyl)imidazolidine-2,4,5-trione] | 127.6 % of IMP | 1.3 ΔF/F | 1 | 127.6 | 1 | 135.7 % of Ala | 1.140 ΔF/F | 135.7 | 0.08 | active | > 1000 | 330 ± 40 | 330 | > 1000 |
| CSc1ccc(-c2nnn(Cc3ccccn3)n2)cc1 [2-((5-(4-(methylthio)phenyl)-2H-tetrazol-2-yl)methyl)pyridine] | – | – | – | – | – | 80.7 % of Ala | 0.678 ΔF/F | 80.7 | 0.1575 | active | – | – | – | – |
| CCC(CC)NC(=O)c1ccc(OC)c(OC)c1 [3,4-dimethoxy-N-(pentan-3-yl)benzamide] | 43.9 % of IMP | 0.545 ΔF/F | 0.3 | 43.9 | 0.3 | 81.0 % of Ala | 0.9975 ΔF/F | 81.0 | 0.5 | active | – | – | – | – |
| CCC(CC)NC(=O)c1ccc(C)c(C)c1 [3,4-dimethyl-N-(pentan-3-yl)benzamide; N-(1-ethylpropyl)-3,4-dimethylbenzamide] | 97.8 % of IMP | 1.2150 ΔF/F | 3 | – | – | 125.7 % of Ala | – | – | – | – | – | – | – | – |
| CCC(CC)NC(=O)c1ccc(C)c(C)c1 [3,4-dimethyl-N-(pentan-3-yl)benzamide] | – | – | – | 97.8 | 3 | – | 1.5475 ΔF/F | 125.7 | 0.525 | active | – | – | – | – |
| COc1ccc(C(=O)NC(C)c2ccccc2)cc1C (stereo not drawn) [4-methoxy-3-methyl-N-(1-phenylethyl)benzamide] | 41.0 % of IMP | 0.51 ΔF/F | 3 | 41.0 | 3 | 95.6 % of Ala | 1.1775 ΔF/F | 95.6 | 0.35 | active | – | – | – | – |
| CCCC(C)NC(=O)c1ccc(OC)c(C)c1 (stereo not drawn) [4-methoxy-3-methyl-N-(pentan-2-yl)benzamide] | 126.0 % of IMP | 1.5650 ΔF/F | 0.050 | 126.0 | 0.050 | 128.9 % of Ala | 1.5875 ΔF/F | 128.9 | 0.025 | active | – | – | – | – |
